# According to ChEMBL document CHEMBL3885881, “DrugMatrix”:
# Species on record: Rattus norvegicus
# Assay: DrugMatrix - Regimen: Daily Repeat
# Format: toxicity, organism-based, Sprague-Dawley
# Parameters: regimen Daily Repeat, gender Male, age 6-8 weeks
# Conditions: in vivo, iv, vehicle 100 % SALINE; for ABSOLUTE BASOPHIL / ABSOLUTE EOSINOPHIL / ABSOLUTE LYMPHOCYTE / ABSOLUTE MONOCYTE / ABSOLUTE SEGMENTED NEUTROPHIL / BASOPHIL / EOSINOPHIL / ERYTHROCYTE COUNT / HEMATOCRIT / HEMOGLOBIN / LEUKOCYTE COUNT / LYMPHOCYTE / MEAN CORPUSCULAR HEMOGLOBIN / MEAN CORPUSCULAR HEMOGLOBIN CONCENTRATION / MEAN CORPUSCULAR VOLUME / MONOCYTE / NEUTROPHIL / NUCLEATED RED BLOOD CELLS / PLATELET COUNT: tissue Blood; for ALANINE AMINOTRANSFERASE / ALBUMIN / ALKALINE PHOSPHATASE / ASPARTATE AMINOTRANSFERASE / BLOOD UREA NITROGEN / CARBON DIOXIDE / CHLORIDE / CHOLESTEROL / CREATINE PHOSPHOKINASE / CREATININE / GLUCOSE / LACTATE DEHYDROGENASE / LIPASE / PHOSPHORUS / POTASSIUM / SODIUM / TOTAL BILIRUBIN / TOTAL PROTEIN / URIC ACID: tissue Plasma
# [1] = 200 mg/kg, 72 h, dose level Low, time 3 day
# [2] = 200 mg/kg, 120 h, dose level Low, time 5 day
# [3] = 671 mg/kg, 72 h, dose level High, time 3 day
# [4] = 671 mg/kg, 120 h, dose level High, time 5 day
smiles,measurement,setting,value
CC1(C)[C@H](C(=O)O)N2C(=O)C[C@H]2S1(=O)=O [SULBACTAM],ABSOLUTE BASOPHIL,[1],0 CELLS/uL
same,ABSOLUTE EOSINOPHIL,[1],43 CELLS/uL
same,ABSOLUTE LYMPHOCYTE,[1],14561.67 CELLS/uL
same,ABSOLUTE MONOCYTE,[1],271 CELLS/uL
same,ABSOLUTE SEGMENTED NEUTROPHIL,[1],824.33 CELLS/uL
same,BASOPHIL,[1],0%
same,EOSINOPHIL,[1],0.33%
same,ERYTHROCYTE COUNT,[1],5.6 x10E6/uL
same,HEMATOCRIT,[1],36.53%
same,HEMOGLOBIN,[1],13.5 G/DL
same,LEUKOCYTE COUNT,[1],15.7 x10E3/uL
same,LYMPHOCYTE,[1],93%
same,MEAN CORPUSCULAR HEMOGLOBIN,[1],24.1 pg
same,MEAN CORPUSCULAR HEMOGLOBIN CONCENTRATION,[1],36.97 G/DL
same,MEAN CORPUSCULAR VOLUME,[1],65.23 fL
same,MONOCYTE,[1],1.67%
same,NEUTROPHIL,[1],5%
same,NUCLEATED RED BLOOD CELLS,[1],0 /100WBC
same,PLATELET COUNT,[1],1408.33 x10E3/uL
same,ALANINE AMINOTRANSFERASE,[1],53.67 u/L
same,ALBUMIN,[1],4.27 G/DL
same,ALKALINE PHOSPHATASE,[1],448.33 u/L
same,ASPARTATE AMINOTRANSFERASE,[1],100 u/L
same,BLOOD UREA NITROGEN,[1],15.67 mg/dL
same,CARBON DIOXIDE,[1],25 mmol/L
same,CHLORIDE,[1],104.33 MEQ/L
same,CHOLESTEROL,[1],75.67 mg/dL
same,CREATINE PHOSPHOKINASE,[1],386 u/L
same,CREATININE,[1],0.21 mg/dL
same,GLUCOSE,[1],148.33 mg/dL
same,LACTATE DEHYDROGENASE,[1],566.33 u/L
same,LIPASE,[1],9 u/L
same,PHOSPHORUS,[1],14.37 mg/dL
same,POTASSIUM,[1],6.91 MEQ/L
same,SODIUM,[1],147.5 MEQ/L
same,TOTAL BILIRUBIN,[1],0.2 mg/dL
same,TOTAL PROTEIN,[1],5.87 G/DL
same,URIC ACID,[1],2.33 mg/dL
same,ABSOLUTE BASOPHIL,[2],0 CELLS/uL
same,ABSOLUTE EOSINOPHIL,[2],0 CELLS/uL
same,ABSOLUTE LYMPHOCYTE,[2],14657 CELLS/uL
same,ABSOLUTE MONOCYTE,[2],318 CELLS/uL
same,ABSOLUTE SEGMENTED NEUTROPHIL,[2],925 CELLS/uL
same,BASOPHIL,[2],0%
same,EOSINOPHIL,[2],0%
same,ERYTHROCYTE COUNT,[2],5.84 x10E6/uL
same,HEMATOCRIT,[2],37.7%
same,HEMOGLOBIN,[2],14.03 G/DL
same,LEUKOCYTE COUNT,[2],15.9 x10E3/uL
same,LYMPHOCYTE,[2],92%
same,MEAN CORPUSCULAR HEMOGLOBIN,[2],24.03 pg
same,MEAN CORPUSCULAR HEMOGLOBIN CONCENTRATION,[2],37.23 G/DL
same,MEAN CORPUSCULAR VOLUME,[2],64.47 fL
same,MONOCYTE,[2],2%
same,NEUTROPHIL,[2],6%
same,NUCLEATED RED BLOOD CELLS,[2],0 /100WBC
same,PLATELET COUNT,[2],1395.33 x10E3/uL
same,ALANINE AMINOTRANSFERASE,[2],49.67 u/L
same,ALBUMIN,[2],4.37 G/DL
same,ALKALINE PHOSPHATASE,[2],374.33 u/L
same,ASPARTATE AMINOTRANSFERASE,[2],126 u/L
same,BLOOD UREA NITROGEN,[2],17 mg/dL
same,CARBON DIOXIDE,[2],23 mmol/L
same,CHLORIDE,[2],109 MEQ/L
same,CHOLESTEROL,[2],81.67 mg/dL
same,CREATINE PHOSPHOKINASE,[2],1350 u/L
same,CREATININE,[2],0.18 mg/dL
same,GLUCOSE,[2],184.33 mg/dL
same,LACTATE DEHYDROGENASE,[2],397.67 u/L
same,LIPASE,[2],9.67 u/L
same,PHOSPHORUS,[2],15.07 mg/dL
same,POTASSIUM,[2],6.82 MEQ/L
same,SODIUM,[2],147.1 MEQ/L
same,TOTAL BILIRUBIN,[2],0.17 mg/dL
same,TOTAL PROTEIN,[2],6.2 G/DL
same,URIC ACID,[2],2.3 mg/dL
same,ABSOLUTE BASOPHIL,[3],0 CELLS/uL
same,ABSOLUTE EOSINOPHIL,[3],155 CELLS/uL
same,ABSOLUTE LYMPHOCYTE,[3],10321.67 CELLS/uL
same,ABSOLUTE MONOCYTE,[3],230 CELLS/uL
same,ABSOLUTE SEGMENTED NEUTROPHIL,[3],793.33 CELLS/uL
same,BASOPHIL,[3],0%
same,EOSINOPHIL,[3],1%
same,ERYTHROCYTE COUNT,[3],5.18 x10E6/uL
same,HEMATOCRIT,[3],33.43%
same,HEMOGLOBIN,[3],12.83 G/DL
same,LEUKOCYTE COUNT,[3],11.5 x10E3/uL
same,LYMPHOCYTE,[3],90.33%
same,MEAN CORPUSCULAR HEMOGLOBIN,[3],24.77 pg
same,MEAN CORPUSCULAR HEMOGLOBIN CONCENTRATION,[3],38.4 G/DL
same,MEAN CORPUSCULAR VOLUME,[3],64.63 fL
same,MONOCYTE,[3],2%
same,NEUTROPHIL,[3],6.67%
same,NUCLEATED RED BLOOD CELLS,[3],0 /100WBC
same,PLATELET COUNT,[3],1400 x10E3/uL
same,ALANINE AMINOTRANSFERASE,[3],58 u/L
same,ALBUMIN,[3],4.2 G/DL
same,ALKALINE PHOSPHATASE,[3],390 u/L
same,ASPARTATE AMINOTRANSFERASE,[3],79.67 u/L
same,BLOOD UREA NITROGEN,[3],16.67 mg/dL
same,CARBON DIOXIDE,[3],23.67 mmol/L
same,CHLORIDE,[3],105 MEQ/L
same,CHOLESTEROL,[3],91.67 mg/dL
same,CREATINE PHOSPHOKINASE,[3],323 u/L
same,CREATININE,[3],0.17 mg/dL
same,GLUCOSE,[3],164.67 mg/dL
same,LACTATE DEHYDROGENASE,[3],190.67 u/L
same,LIPASE,[3],9.67 u/L
same,PHOSPHORUS,[3],13.3 mg/dL
same,POTASSIUM,[3],6.52 MEQ/L
same,SODIUM,[3],144.27 MEQ/L
same,TOTAL BILIRUBIN,[3],0.2 mg/dL
same,TOTAL PROTEIN,[3],5.83 G/DL
same,URIC ACID,[3],1.6 mg/dL
same,ABSOLUTE BASOPHIL,[4],0 CELLS/uL
same,ABSOLUTE EOSINOPHIL,[4],174 CELLS/uL
same,ABSOLUTE LYMPHOCYTE,[4],13614.33 CELLS/uL
same,ABSOLUTE MONOCYTE,[4],314 CELLS/uL
same,ABSOLUTE SEGMENTED NEUTROPHIL,[4],1597.67 CELLS/uL
same,BASOPHIL,[4],0%
same,EOSINOPHIL,[4],1%
same,ERYTHROCYTE COUNT,[4],5.71 x10E6/uL
same,HEMATOCRIT,[4],36.2%
same,HEMOGLOBIN,[4],13.7 G/DL
same,LEUKOCYTE COUNT,[4],15.7 x10E3/uL
same,LYMPHOCYTE,[4],86.67%
same,MEAN CORPUSCULAR HEMOGLOBIN,[4],24 pg
same,MEAN CORPUSCULAR HEMOGLOBIN CONCENTRATION,[4],37.87 G/DL
same,MEAN CORPUSCULAR VOLUME,[4],63.33 fL
same,MONOCYTE,[4],2%
same,NEUTROPHIL,[4],10.33%
same,NUCLEATED RED BLOOD CELLS,[4],0 /100WBC
same,PLATELET COUNT,[4],1356 x10E3/uL
same,ALANINE AMINOTRANSFERASE,[4],44.33 u/L
same,ALBUMIN,[4],4.33 G/DL
same,ALKALINE PHOSPHATASE,[4],277 u/L
same,ASPARTATE AMINOTRANSFERASE,[4],78 u/L
same,BLOOD UREA NITROGEN,[4],18.33 mg/dL
same,CARBON DIOXIDE,[4],26.67 mmol/L
same,CHLORIDE,[4],108.33 MEQ/L
same,CHOLESTEROL,[4],75.67 mg/dL
same,CREATINE PHOSPHOKINASE,[4],555.67 u/L
same,CREATININE,[4],0.17 mg/dL
same,GLUCOSE,[4],164.67 mg/dL
same,LACTATE DEHYDROGENASE,[4],144 u/L
same,LIPASE,[4],9 u/L
same,PHOSPHORUS,[4],13.8 mg/dL
same,POTASSIUM,[4],6.54 MEQ/L
same,SODIUM,[4],148.8 MEQ/L
same,TOTAL BILIRUBIN,[4],0.17 mg/dL
same,TOTAL PROTEIN,[4],6.43 G/DL
same,URIC ACID,[4],1.67 mg/dL
